Results on four molecules are retold here after patent EP1501797B1, “3-(SUBSTITUTED AMINO)-1H-INDOLE-2-CARBOXYLIC ACID ESTER AND 3-(SUBSTITUTED AMINO)-BENZO[B]THIOPHENE-2-CARBOXYLIC ACID ESTER DERIVATIVES AS INTERLEUKIN-4 GENE EXPRESSION INHIBITORS” (Aventis Pharmaceuticals Inc., priority 2002, dated 2003).

As usually defined, the IC50 is the concentration at which inhibition is half-maximal.

Structures can show the parent of a compound that is named as a salt. Starred links: 1 amine or outer side, 2 acyl side, 3 side chain; linkers in the order of their positions; H or OH if unused. Positions of bridges follow the written chain, without caps; N, C: chain ends. Non-standard residues stand in square brackets, D forms with d. Residues, ends and D or L forms follow the SMILES beside them. Chains are numbered I, II in the order given. Actinocin(9to1) = Cc1c2oc3c(C)ccc(C(=O)[*:1])c3nc-2c(C(=O)[*:2])c(N)c1=O; NMeV = CN[C@H](C(=O)O)C(C)C; Sar = CNCC(=O)O

One series deals with Swiss 3T3 fibroblasts. The series can be described thus: In vitro cytotoxicity assay on contact inhibited 3T3 fibroblasts (MTS). The note with it: for % control (viability of quiescent 3T3 cells): 2 day incubation. As to the method: A third assay utilized in the present invention involves an in vitro cytotoxicity assay. This assay is used to further characterize the compounds in order to assess toxic activities of compounds on contact inhibited, non-dividing 3T3 fibroblasts. Other toxicity assays may be used.
Contact inhibited Swiss 3T3 fibroblasts are purchased from ATCC. The cells are maintained in 1640 RPMI supplemented with 10% fetal bovine serum (Gibco).
On day of assay, cells are detached from flasks by trypsinization, washed in medium and counted. 100 microliters of 2.5 x 10^4 cells per well are plated into Falcon brand 96 well tissue culture plates and cells incubated at 37°C in presence of 5% CO2 for 2 days or until confluent.
[…] All compound dilutions are assayed in triplicate. […] Cells are returned to the incubator for 2 days.
After 2 day incubation, the 3T3 cells are assayed for viability using an MTS Assay Kit (Promega). Media is added to blank wells for background calculations. After 2 hours incubation in kit reagent, the optical density at 490 nm for each compound and control is determined by plate reader.
Results are expressed as percent cytotoxicity, i.e., (mean OD of compound wells - background OD)/ (mean OD of controls - background).
Note that starting concentration of CsA was 1 µM. […]

The subject of a further series is IL-13. Kind of series: Human primary Th2 cells, anti-CD3/anti-CD28 activated, IL-13 ELISA. Type of series: cell-based. The conditions noted are these: human primary Th2 cells, anti-CD3 and anti-CD28 (Table 5). As to the method:
(§1) Briefly, CD4^+CD45RA^+ T cells, isolated from donor peripheral blood mononuclear cells of healthy donors, are educated in the presence of anti-CD3/CD28 antibodies and various growth factors to obtain either a Thl-like or Th2-like phenotypes as determined by the known cytokine profiles of these two cell types.
(§2) Peripheral blood mononuclear cells (PBMC) are prepared from human blood by Ficoll-Hypacque (Pharmacia). The cells are washed two times in Hanks balanced salt solution (HBSS) and counted.
(§3) Naive T cells (CD4^+/CD45RA ) are prepared by negative selection method using following antibodies and Dynabeads: anti-CD8, anti-HLA-DR, (where HLA means human leucocyte antigen) anti-CD14, anti-CD16, anti-CD19, anti-CD45RO antibodies (all from R&D Systems, 1-2 µg/ml) are added to the cells, and the cells are kept on ice for 30 min. The cells are washed two times in HBSS, and goat anti- mouse Ig-beads, (bead:target ratio, 5:1) are added. The cells and beads are slowly rotated at 4°C for 20 min. (following the protocol supplied from Dynal). The supernatant is removed and fresh goat anti-mouse Ig-beads are added to the supernatant, which is slowly rotated at 4°C for 20 min. The cells are counted and phenotypically characterized by flow cytometric analysis.
(§4) CD4^+/CD45RA^+ cells at a density of 10^6/ml in RPMI, is prepared and added to RPMI medium containing 10% Hyclone serum/ glutamine and 1-2 µg/ml anti-CD28 Ab. The cells are split in two aliquots. For Th1 cells: anti-IL-4 Ab (1-2 µg/ml), IFN-γ (1 µg/ml, or 5000 units/ml) are added to the wells. For Th2 cells: IL-4 (100-200 ng/ml), anti-IFN-γ neutralizing Ab (1-2 µg/ml), anti-IL-12 neutralizing Ab (1-2 µg/ml) are added into the wells. […] The cells are transferred to fresh wells and grown in 200 units/ml IL-2 for 2 weeks by feeding them every other day with IL-2 containing medium and splitting the cultures 1:2 or 1:3 as needed. The degree of polarization is determined by intracellular staining of cells with anti-IFN-γ and anti-IL-4 antibodies from Pharmingen, and using flow cytometry from Becton Dickinson (BD), according to manufacturers description. The cells are stimulated with PHA and alloantigens at day 14 and 28 as described below. Eight days after the second allostimulation the cells can be used for compound screening or frozen for future use. For compound testing, large quantities of Th1 and Th2 cells derived from a given donor (NYTh1 and NYTh2) were expanded and frozen as aliquots in liquid nitrogen. The cells are thawed and cultured as and when needed. The thawed cells are stimulated with alloantigen/PHA combination. The cells are used for compound screening after 8-10 days in culture.
(§5) Re-stimulation by allogeneic cells: Human PBMCs, to be used as alloantigens, are isolated from freshly drawn blood by Ficoll separation. […] Cells are counted and diluted to a final concentration of 2 x 10^6/ml in medium containing 10 µg/ml PHA and 200 units/ml IL-2.
(§6) Ninetysix well Falcon tissue culture plates (Fisher Scientific) are coated with 100 microliters per well of 10 µg/ml anti-CD3 (PharMingen) antibody in phosphate buffered saline (PBS) and stored at 4°C one day before the experiment.
(§7) On the day of assay, anti-CD3 antibody coated plates are washed with PBS once to remove all soluble anti-CD3 antibody. […] All compounds and controls are assayed in triplicates.

For series [1], the system named is IL-4. Kind of series: Human primary Th2 cells, anti-CD3/anti-CD28 activated, IL-4 ELISA. Type of series: cell-based. The conditions noted are these: human primary Th2 cells, anti-CD3 and anti-CD28 (Table 5). As to the method:
as §1, §2, §3, §4, §5, §6, §7
For orientation: An ELISA detects its analyte on a solid surface through an enzyme-linked reagent.

The test system of series [2] is IL-4. Kind of series: In vivo ovalbumin (OVA) mouse model, BALF IL-4. Further details: species or system mice. As to the method:
This model is designed to determine the ability of a test article to modulate an antigen-induced pulmonary inflammatory cell accumulation in sensitized Balb/c mice from Charles River Laboratories. The mice are given a two week time period from arrival date prior to sensitizations.
On days 0, 7, 14, each animal is injected intraperitoneal (i.p.) with a 0.2 ml Ovalbumin Hydragel solution. Each animal receives 10 µg of Ovalbumin in 0.2 mL of Hydragel, aluminum hydroxide adsorptive gel containing 2% aluminum oxide. […] On day 22, BALF samples are collected from one group of animals and used for cytokine analysis. On day 24, BALF is obtained from a second group of animals and used for differential cell counts.
Test System: Female Babl/cJ mice (Jackson Laboratories), approximately 6-9 weeks old, each weighing approximately 20 to 25 grams, are divided into ten animals per group.
Sensitization Regimen: Mice are sensitized by an intraperitoneal injection of 10 µg ovalbumin (OVA) mixed in 4 mg aluminum hydroxide Al(OH)3 gel suspension in 0.2 ml sterile saline on Days 0, 7 and 14. This suspension is prepared one hour before intraperitoneal injection into each mouse. The animals are ready for OVA challenge on Day 21.
Antigen Challenge: Animals are exposed to aerosolized OVA on day 21 (5% w/v in sterile saline) for 20 minutes. The aerosol is generated by a PARI-Master nebulizer, the outlet of which is connected to a small Plexiglas® chamber containing the animals. Bronchoalveolar lavage is performed on Day 22.
Method of Study Performance: On day 24, 72 hours following aerosol OVA exposure, a separate group of animals are anesthetized with urethane (0.15 - 0.2 gm/kg) and the trachea is exposed and cannulated. Lungs are lavaged with 2 x 0.5 ml Hank's balanced salt solution without Ca^2+ and Mg^2+ (HBSS; Gibco, Grand Island, NY) containing 0.1% EDTA. Lavage fluid is recovered after 30 sec by gentle aspiration and pooled for each animal. Samples are centrifuged at 2000 rpm for 15 minutes at 5°C. After centrifugation, individual supernatants are stored frozen at -80°C. The resulting pellet is resuspended in 0.5 ml of HBSS containing 0.1% EDTA. Total cells and eosinophils are determined using a Technicon Hl and cytoslides, respectively.
Administration of the Test/Control Article: The test article and vehicle dosing preparations are administered once to each anesthetized mouse intranasally using a 200 µl pipette at 30-60 minutes prior to OVA challenge. Each animal receives 50 µl (25 µl/nostril) at each time point. Method of Euthanasia: Urethane overdose at in-life completion.
Compounds administered 30 minutes before aerosol ovalbumin challenge in ova sensitized mice. BALF harvested 24 hours after aerosol challenge. N = 6/group.
Mice (12 animals per group) are sensitized with 0.2 ml of an AlOH3 hydrogel suspension (2% AlOH3) containing 50 µg/ml ovalbumin on days 0, 7 and 14. […] The glucocorticosteroid budesonide (10 mg/kg) is included as a control. All compounds are given in 0.5% methylcellulose/0.2% Tween 80, intranasally (50µl). After the OVA challenge for 24 hours, the mice underwent bronchoalveolar lavage and IL-4 and IL-13 levels in the BALF are determined by ELISA. Another group of mice underwent bronchoalveolar lavage (72 hours after treatment) to determine the number of the eosinophils (*p<0.05, **p<0.01).
Compounds are given (30 mg/kg), intranasally, once, 30 min before OVA challenge unless noted otherwise. BAL fluids are collected 24 hours after OVA challenge and the cytokine levels are measured by standard ELISAs.

Another series concerns IFN-γ. Kind of series: Human primary Th2 cells, anti-CD3/anti-CD28 activated, IFN-γ ELISA. Type of series: cell-based. The note with it: human primary Th2 cells, anti-CD3 and anti-CD28 (Table 5). As to the method:
as §1, §2, §3, §4, §5, §6, §7

For the next series, the system named is eosinophils. Kind of series: In vivo ovalbumin (OVA) mouse model, BALF eosinophils. On the set-up: species or system mice. The note with it: i.n.
For the next series, the system named is Human Th2 cells. The series can be described thus: Human primary Th2 cells, proliferation (viability, MTS assay). Type of series: cell-based. The conditions noted are these: human primary Th2 cells, anti-CD3 and anti-CD28 (Table 5); read-out: Prolif. IC50. As to the method: as §1, §2, §3, §4, §5, §6, §7
On the technique in general: Formazan colour is commonly taken as a measure of viable cells.

In a further series the test system is IL-5. The series can be described thus: Human primary Th2 cells, anti-CD3/anti-CD28 activated, IL-5 ELISA. Type of series: cell-based. The note with it: human primary Th2 cells, anti-CD3 and anti-CD28 (Table 5). As to the method: as §1, §2, §3, §4, §5, §6, §7

Protocol for eosinophils: On days 0, 7, 14, each animal is injected intraperitoneal (i.p.) with a 0.2 ml Ovalbumin Hydragel solution. Each animal receives 10 µg of Ovalbumin in 0.2 mL of Hydragel, aluminum hydroxide adsorptive gel containing 2% aluminum oxide. […] On day 24, BALF is obtained from a second group of animals and used for differential cell counts. […]
Sensitization Regimen: Mice are sensitized by an intraperitoneal injection of 10 µg ovalbumin (OVA) mixed in 4 mg aluminum hydroxide Al(OH)3 gel suspension in 0.2 ml sterile saline on Days 0, 7 and 14. […] The animals are ready for OVA challenge on Day 21. […]
Method of Study Performance: On day 24, 72 hours following aerosol OVA exposure, a separate group of animals are anesthetized with urethane (0.15 - 0.2 gm/kg) and the trachea is exposed and cannulated. […] Total cells and eosinophils are determined using a Technicon Hl and cytoslides, respectively. […]
Compounds are given (30 mg/kg), intranasally, once, 30 min before OVA challenge unless noted otherwise. […] From a parallel set of animals, BAL are collected at 48 hours and the number of eosinophils are determined.

On to `Cc1c2oc3c(C)ccc(C(=O)N[C@@H]4C(=O)N[C@H](C(C)C)C(=O)N5CCC[C@H]5C(=O)N(C)CC(=O)N(C)[C@@H](C(C)C)C(=O)O[C@@H]4C)c3nc-2c(C(=O)N[C@@H]2C(=O)N[C@H](C(C)C)C(=O)N3CCC[C@H]3C(=O)N(C)CC(=O)N(C)[C@@H](C(C)C)C(=O)O[C@@H]2C)c(N)c1=O` [Actinomycin D] (I: T[dV]P[Sar][NMeV] / II: T[dV]P[Sar][NMeV]; ester I:1-I:C, II:1-II:C; linker I:N-II:N via Actinocin(9to1)), for which the “% control (viability of quiescent 3T3 cells)” value was determined as 79.0 % control in the series on Swiss 3T3 fibroblasts (0.001 µM); 74.9 % control with Swiss 3T3 fibroblasts (0.003 µM); 67.2 % control in the series with Swiss 3T3 fibroblasts (0.01 µM); 33.9 % control in the series with Swiss 3T3 fibroblasts (0.03 µM); 28.2 % control in the series with Swiss 3T3 fibroblasts (0.1 µM); 29.7 % control in the series on Swiss 3T3 fibroblasts (3 µM). The “% control (viability of quiescent 3T3 cells)” value with Swiss 3T3 fibroblasts (10 µM) came to 16.8 % control. Further, in the series with Swiss 3T3 fibroblasts (non-dividing 3T3 cells), the “toxic effects on the viability of quiescent 3T3 cells (in words)” value was “effected the viability”.

Take `O=C(O)c1[nH]c2ccccc2c1Nc1ccncc1` [Example 28 (maleate salt)]: the IC50 in the series with IL-13 is ~10 µM; in the series on IL-4 [1], 240 nM; in the series on IFN-γ it was > 10 µM; in the series on Human Th2 cells, > 10 µM; in the series with IL-5, > 10 µM. Besides, the “IL-4 % ctl At 24hours” value is recorded as 57 % ctl in the series on IL-4 [2] (i.n., 10 mg/kg); 50 % ctl in the series with IL-4 [2] (i.n., 12 mg/kg); 34 % ctl in the series with IL-4 [2] (i.n., 30 mg/kg, once, 30 min before OVA challenge); 43 % ctl in the series with IL-4 [2] (i.p., 30 mg/kg). The “Eos % ctl At 72hours” value with eosinophils (10 mg/kg) amounted to 53 % ctl; in the series on eosinophils (30 mg/kg), 28 % ctl.

In the case of `O=C(O)c1[nH]c2cc(Cl)cc(Cl)c2c1NS(=O)(=O)c1ccccc1` [Reference Example 91, 3-((Phenylsulfonyl)amino)-4,6-dichloro-1H-indole-2-carboxylic acid], the IC50 is > 10 µM with IL-13; 1000 nM with IL-4 [1]; > 10 µM in the series on IFN-γ; > 10 µM in the series with Human Th2 cells; > 10 µM in the series on IL-5.

For the molecule `CN(c1c(C(=O)O)[nH]c2cc(Cl)cc(Cl)c12)S(=O)(=O)c1ccccc1` [Reference Example 92, 3-((Phenylsulfonyl)methylamino)-4,6-dichloro-1H-indole-2-carboxylic acid], the IC50 was > 10 µM in the series with IL-13; 450 nM in the series on IL-4 [1]; > 10 µM in the series with IFN-γ; > 10 µM with Human Th2 cells; > 10 µM in the series on IL-5.
